In patent US8722578B2, “Spiroheterocyclic pyrrolidinedione herbicidal compositions” (Syngenta Participations AG, priority 2008, dated 2014):

Assays:
[1] = tested on: Digitaria sanguinalis (DIGSA); assay: Example A pre-emergence herbicidal activity, glasshouse pot test; format: in vivo; conditions: 480 h, rate 250 g/ha, evaluated 20 days after spraying, read-out: DIGSA pre-emergence activity (100=total damage to plant; 0=no damage to plant)
Experimental: (§1) Monocotyledonous and dicotyledonous test plants are sown in standard soil in pots. After cultivation for one day (pre-emergence) or after 10 days cultivation (post-emergence) under controlled conditions in a glasshouse, the plants are sprayed with an aqueous spray solution derived from the formulation of the technical active ingredient in 0.6 ml acetone and 45 ml formulation solution containing 10.6% Emulsogen EL (Registry number 61791-12-6), 42.2% N-methylpyrrolidone, 42.2% dipropylene glycol monomethyl ether (Registry number 34590-94-8) and 0.2% X-77 (Registry number 11097-66-8). The test plants are then grown in a greenhouse under optimum conditions until, 15 days later for post-emergence and 20 days for pre-emergence, the test is evaluated (100=total damage to plant; 0=no damage to plant). Test Plants: Alopecurus myosuroides (ALOMY), Avena fatua (AVEFA), Lolium perenne (LOLPE), Setaria faberi (SETFA), Digitaria sanguinalis (DIGSA), Echinochloa crus-galli (ECHCG) Pre-Emergence Activity

Setaria faberi (SETFA) [2] = assay: as above; format: in vivo; conditions: 480 h, rate 250 g/ha, evaluated 20 days after spraying, read-out: SETFA pre-emergence activity (100=total damage to plant; 0=no damage to plant)
Experimental: as §1

[3] = tested on: Echinochloa crus-galli (ECHCG); assay: as above; format: in vivo; conditions: 480 h, rate 250 g/ha, evaluated 20 days after spraying, read-out: ECHOG pre-emergence activity (100=total damage to plant; 0=no damage to plant)
Experimental: as §1

Avena fatua (AVEFA) [4] = assay: as above; format: in vivo; conditions: 480 h, rate 250 g/ha, evaluated 20 days after spraying, read-out: AVEFA pre-emergence activity (100=total damage to plant; 0=no damage to plant)
Experimental: as §1

[5] = tested on: Alopecurus myosuroides (ALOMY); assay: as above; format: in vivo; conditions: 480 h, rate 250 g/ha, evaluated 20 days after spraying, read-out: ALOMY pre-emergence activity (100=total damage to plant; 0=no damage to plant)
Experimental: as §1

Lolium perenne (LOLPE) [6] = assay: as above; format: in vivo; conditions: 480 h, rate 250 g/ha, evaluated 20 days after spraying, read-out: LOLPE pre-emergence activity (100=total damage to plant; 0=no damage to plant)
Experimental: as §1

[7] = tested on: Digitaria sanguinalis (DIGSA); assay: Example A post-emergence herbicidal activity, glasshouse pot test; format: in vivo; conditions: 360 h, rate 125 g/ha, evaluated 15 days after spraying, read-out: DIGSA post-emergence activity (100=total damage to plant; 0=no damage to plant)
Experimental: as §1, with “Post-Emergence” for “Pre-Emergence”

Setaria faberi (SETFA) [8] = assay: as above; format: in vivo; conditions: 360 h, rate 125 g/ha, evaluated 15 days after spraying, read-out: SETFA post-emergence activity (100=total damage to plant; 0=no damage to plant)
Experimental: as §1, with “Post-Emergence” for “Pre-Emergence”

[9] = tested on: Echinochloa crus-galli (ECHCG); assay: as above; format: in vivo; conditions: 360 h, rate 125 g/ha, evaluated 15 days after spraying, read-out: ECHOG post-emergence activity (100=total damage to plant; 0=no damage to plant)
Experimental: as §1, with “Post-Emergence” for “Pre-Emergence”

Avena fatua (AVEFA) [10] = assay: as above; format: in vivo; conditions: 360 h, rate 125 g/ha, evaluated 15 days after spraying, read-out: AVEFA post-emergence activity (100=total damage to plant; 0=no damage to plant)
Experimental: as §1, with “Post-Emergence” for “Pre-Emergence”

[11] = tested on: Alopecurus myosuroides (ALOMY); assay: as above; format: in vivo; conditions: 360 h, rate 125 g/ha, evaluated 15 days after spraying, read-out: ALOMY post-emergence activity (100=total damage to plant; 0=no damage to plant)
Experimental: as §1, with “Post-Emergence” for “Pre-Emergence”

Lolium perenne (LOLPE) [12] = assay: as above; format: in vivo; conditions: 360 h, rate 125 g/ha, evaluated 15 days after spraying, read-out: LOLPE post-emergence activity (100=total damage to plant; 0=no damage to plant)
Experimental: as §1, with “Post-Emergence” for “Pre-Emergence”

Setaria faberi (SETFA) [13] = assay: Example B pre-emergence herbicidal activity, glasshouse pot test; format: in vivo; conditions: 312 h, first table (headed Post-Emergence, taken as pre-emergence), evaluated after 13 days, read-out: SETFA activity (100=total damage to plant; 0=no damage to plant)
Experimental: (§2) Seeds of a variety of test species are sown in standard soil in pots. After cultivation for one day (pre-emergence) or after 8 days cultivation (post-emergence) under controlled conditions in a glasshouse (at 24/16° C., day/night; 14 hours light; 65% humidity), the plants are sprayed with an aqueous spray solution derived from the formulation of the technical active ingredient in acetone/water (50:50) solution containing 0.5% Tween 20 (polyoxyethelyene sorbitan monolaurate, CAS RN 9005-64-5). The test plants are then grown in a glasshouse under controlled conditions in a glasshouse (at 24/16° C., day/night; 14 hours light; 65% humidity) and watered twice daily. After 13 days for pre and post-emergence, the test is evaluated (100=total damage to plant; 0=no damage to plant). Test Plants: Setaria faberi (SETFA), Alopecurus myosuroides (ALOMY), Echinochloa crus-galli (ECHCG), Avena fatua (AVEFA)

[14] = tested on: Echinochloa crus-galli (ECHCG); assay: as above; format: in vivo; conditions: 312 h, first table (headed Post-Emergence, taken as pre-emergence), evaluated after 13 days, read-out: ECHCG activity (100=total damage to plant; 0=no damage to plant)
Experimental: as §2

Avena fatua (AVEFA) [15] = assay: as above; format: in vivo; conditions: 312 h, first table (headed Post-Emergence, taken as pre-emergence), evaluated after 13 days, read-out: AVEFA activity (100=total damage to plant; 0=no damage to plant)
Experimental: as §2

[16] = tested on: Alopecurus myosuroides (ALOMY); assay: as above; format: in vivo; conditions: 312 h, first table (headed Post-Emergence, taken as pre-emergence), evaluated after 13 days, read-out: ALOMY activity (100=total damage to plant; 0=no damage to plant)
Experimental: as §2

Setaria faberi (SETFA) [17] = assay: Example B post-emergence herbicidal activity, glasshouse pot test; format: in vivo; conditions: 312 h, evaluated after 13 days, read-out: SETFA post-emergence activity (100=total damage to plant; 0=no damage to plant); for pest or weed control at 1000 g/ha: rate 1000 g/ha
Experimental: as §2

[18] = tested on: Echinochloa crus-galli (ECHCG); assay: as above; format: in vivo; conditions: 312 h, evaluated after 13 days, read-out: ECHCG post-emergence activity (100=total damage to plant; 0=no damage to plant); for pest or weed control at 1000 g/ha: rate 1000 g/ha
Experimental: as §2

Avena fatua (AVEFA) [19] = assay: as above; format: in vivo; conditions: 312 h, evaluated after 13 days, read-out: AVEFA post-emergence activity (100=total damage to plant; 0=no damage to plant); for pest or weed control at 1000 g/ha: rate 1000 g/ha
Experimental: as §2

[20] = tested on: Alopecurus myosuroides (ALOMY); assay: as above; format: in vivo; conditions: 312 h, evaluated after 13 days, read-out: ALOMY post-emergence activity (100=total damage to plant; 0=no damage to plant); for pest or weed control at 1000 g/ha: rate 1000 g/ha
Experimental: as §2

Row | Structure (SMILES) | pest or weed control at 250 g/ha [1] [%] | pest or weed control at 250 g/ha (Setaria faberi (SETFA) [2]) [%] | pest or weed control at 250 g/ha [3] [%] | pest or weed control at 250 g/ha (Avena fatua (AVEFA) [4]) [%] | pest or weed control at 250 g/ha [5] [%] | pest or weed control at 250 g/ha (Lolium perenne (LOLPE) [6]) [%] | pest or weed control at 125 g/ha [7] [%] | pest or weed control at 125 g/ha (Setaria faberi (SETFA) [8]) [%] | pest or weed control at 125 g/ha [9] [%] | pest or weed control at 125 g/ha (Avena fatua (AVEFA) [10]) [%] | pest or weed control at 125 g/ha [11] [%] | pest or weed control at 125 g/ha (Lolium perenne (LOLPE) [12]) [%] | pest or weed control at 1000 g/ha (Setaria faberi (SETFA) [17]) [%] | pest or weed control at 1000 g/ha [18] [%] | pest or weed control at 1000 g/ha (Avena fatua (AVEFA) [19]) [%] | pest or weed control at 1000 g/ha [20] [%] | other results
1 | CCOC(=O)OC1=C(c2c(C)cc(C)cc2C)C(=O)NC12CCN(OC)CC2 [Compound P18] | 20 | 20 | 30 | 70 | 60 | 70 | 80 | 60 | 80 | 60 | 70 | 70 | 100 | 100 | 90 | 100 | pest or weed control at 1000 g/ha (Setaria faberi (SETFA) [13]; rate 1000 g/ha): 100%; pest or weed control at 1000 g/ha ([14]; rate 1000 g/ha): 100%; pest or weed control at 1000 g/ha (Avena fatua (AVEFA) [15]; rate 1000 g/ha): 90%; pest or weed control at 1000 g/ha ([16]; rate 1000 g/ha): 100%
2 | CON1CCC2(CC1)NC(=O)C(c1cc(-c3ccc(Cl)cc3)ccc1C)C2=O (stereo not drawn) [Compound T9] | 0 | 0 | 10 | 60 | 0 | 30 | 100 | 90 | 100 | 80 | 90 | 50 | 100 | 100 | 90 | 80 | 
3 | CCOC(=O)OC1=C(c2ccc(Br)cc2Cl)C(=O)NC12CCN(OC)CC2 [Compound P66] |  |  |  |  |  |  |  |  |  |  |  |  |  |  |  |  | melting point: 199 to 201 °C; pest or weed control at 250 g/ha (Setaria faberi (SETFA) [13]; rate 250 g/ha): 10%; pest or weed control at 250 g/ha ([14]; rate 250 g/ha): 0%; pest or weed control at 250 g/ha (Avena fatua (AVEFA) [15]; rate 250 g/ha): 10%; pest or weed control at 250 g/ha ([16]; rate 250 g/ha): 30%; pest or weed control at 250 g/ha (Setaria faberi (SETFA) [17]; rate 250 g/ha): 90%; pest or weed control at 250 g/ha ([18]; rate 250 g/ha): 100%; pest or weed control at 250 g/ha (Avena fatua (AVEFA) [19]; rate 250 g/ha): 70%; pest or weed control at 250 g/ha ([20]; rate 250 g/ha): 90%
